The text below walks through data of patent publication US9872875B2, “Component and method for treating viral disease” (Institut Pasteur of Shanghai, Chinese Academy of Sciences, priority 2012, dated 2018).

Experiment [1] deals with EV71. Briefly: Effects of other antagonists and agonists on EV71 (Table 9). Format: cell-based, Enterovirus 71. Further details: key: “NO” indicates there is negative.
For experiment [2], the target named is T1, P2X7 receptor (Homo sapiens, UniProt Q99572).
T1 sequence (Q99572 1-595): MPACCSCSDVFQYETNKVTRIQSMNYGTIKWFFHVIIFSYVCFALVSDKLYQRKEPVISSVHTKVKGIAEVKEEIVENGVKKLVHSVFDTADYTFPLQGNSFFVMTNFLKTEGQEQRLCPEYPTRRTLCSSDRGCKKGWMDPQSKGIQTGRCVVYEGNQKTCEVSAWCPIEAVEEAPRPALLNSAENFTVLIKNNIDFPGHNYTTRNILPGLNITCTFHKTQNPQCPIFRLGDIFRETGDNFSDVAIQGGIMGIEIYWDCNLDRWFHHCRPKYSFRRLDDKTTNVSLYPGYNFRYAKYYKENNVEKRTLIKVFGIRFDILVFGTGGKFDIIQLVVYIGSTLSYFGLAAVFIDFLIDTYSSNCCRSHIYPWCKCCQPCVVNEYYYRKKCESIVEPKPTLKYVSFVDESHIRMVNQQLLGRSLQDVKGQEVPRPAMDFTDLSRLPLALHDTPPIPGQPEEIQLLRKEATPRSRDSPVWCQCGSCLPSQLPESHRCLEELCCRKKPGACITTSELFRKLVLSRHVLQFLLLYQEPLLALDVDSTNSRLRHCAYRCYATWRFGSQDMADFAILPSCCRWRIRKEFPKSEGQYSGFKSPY
The conditions noted are these: cited from earlier work.

The subject of experiment [3] is EV71. Briefly: Inhibition of EV71 replication in RD cells at 0.1, 1, 10 and 100 μM (CPE, crystal violet). Format: cell-based, Enterovirus 71. The following applies: for Inhibition of EV71 replication: Table 8, antagonists. The method, then: Inhibitory effect of each P2X receptor antagonists and agonists on EV71 replication was measured at 0.1, 1, 10, and 100 μM. Specific procedures refer to “1” of Example 1. after infection, however, cells need to be incubated for 3˜4 days, stained with crystal violet, and observed under optical microscope to determine whether or not CPE (cytopathic effect) was present. In addition, the effect of compounds at each concentration on cytotoxicity to RD cells was determined. After culturing RD cells in various concentrations of compounds for 3˜4 days, stained with crystal violet, and observed under optical microscope to observe whether or not cell layer was damaged. Compounds capable of protecting cells from infection without damage of healthy cell layer can inhibit EV71 replication in RD cells.

Experiment [4] has as its target T2, P2X1 receptor (Homo sapiens, UniProt P51575).
T2 sequence (P51575 1-399): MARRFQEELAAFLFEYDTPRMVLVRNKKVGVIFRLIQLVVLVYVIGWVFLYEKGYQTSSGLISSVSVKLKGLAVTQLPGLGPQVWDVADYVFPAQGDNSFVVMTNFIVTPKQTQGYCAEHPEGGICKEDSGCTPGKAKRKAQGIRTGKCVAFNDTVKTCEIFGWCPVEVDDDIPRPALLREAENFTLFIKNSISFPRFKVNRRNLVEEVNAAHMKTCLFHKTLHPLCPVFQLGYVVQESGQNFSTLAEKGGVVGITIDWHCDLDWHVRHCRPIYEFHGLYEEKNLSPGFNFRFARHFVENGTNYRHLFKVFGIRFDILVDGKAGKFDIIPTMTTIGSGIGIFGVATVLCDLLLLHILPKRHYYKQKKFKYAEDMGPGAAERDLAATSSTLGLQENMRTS
The conditions noted are these: cited from earlier work.

The target of experiment [5] is T3, P2X3 receptor (Homo sapiens, UniProt P56373).
T3 sequence (P56373 1-397): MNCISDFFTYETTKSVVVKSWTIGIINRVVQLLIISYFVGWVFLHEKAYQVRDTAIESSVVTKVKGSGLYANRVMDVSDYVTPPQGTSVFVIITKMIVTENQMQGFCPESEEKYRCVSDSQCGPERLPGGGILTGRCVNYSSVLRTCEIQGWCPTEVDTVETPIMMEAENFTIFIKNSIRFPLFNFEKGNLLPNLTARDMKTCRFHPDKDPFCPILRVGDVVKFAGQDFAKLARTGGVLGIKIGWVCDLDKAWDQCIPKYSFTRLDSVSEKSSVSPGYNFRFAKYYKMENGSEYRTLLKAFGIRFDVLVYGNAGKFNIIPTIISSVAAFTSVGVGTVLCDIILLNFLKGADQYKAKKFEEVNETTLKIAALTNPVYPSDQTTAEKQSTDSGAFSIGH
The following applies: cited from earlier work.

Experiment [6] addresses T4, P2X2 receptor (Homo sapiens, UniProt Q9UBL9).
T4 sequence (Q9UBL9 1-471): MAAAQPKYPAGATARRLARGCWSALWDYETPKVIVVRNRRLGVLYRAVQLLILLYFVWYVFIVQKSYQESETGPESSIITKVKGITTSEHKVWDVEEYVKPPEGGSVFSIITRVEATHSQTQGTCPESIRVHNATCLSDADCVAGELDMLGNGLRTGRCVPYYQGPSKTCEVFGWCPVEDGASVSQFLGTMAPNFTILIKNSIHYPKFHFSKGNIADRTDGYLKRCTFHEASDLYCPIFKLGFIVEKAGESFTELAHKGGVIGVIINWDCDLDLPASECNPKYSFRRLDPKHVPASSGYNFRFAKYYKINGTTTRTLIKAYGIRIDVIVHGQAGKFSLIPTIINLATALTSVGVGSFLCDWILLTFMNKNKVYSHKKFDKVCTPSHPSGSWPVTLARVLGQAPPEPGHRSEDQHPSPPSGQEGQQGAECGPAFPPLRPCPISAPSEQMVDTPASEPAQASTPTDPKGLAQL
The conditions noted are these: cited from earlier work.

Where a name gives a salt, the structure may show the parent alone. Read-outs that look alike come from different tables or passages of the source. Ends that are not written are not given here.

As to `O=C1CSC(=O)N1C(CCc1ccncc1)COc1ccc(-c2cccc([N+](=O)[O-])c2)cc1` (stereo not drawn) [AZ 11645373], in experiment [1], the “EV71 Log10 reduction” value is listed as “NO”. Also, in experiment [2] (Table 9, antagonists), the “P2X receptors 7” value is listed as “✓ ✓ (✓ ✓ activating concentration 10 nM-300 nM)”.

For the compound `Cc1cc(-c2ccc(N=Nc3ccc4c(S(=O)(=O)[O-])cc(S(=O)(=O)[O-])c(N)c4c3O)c(C)c2)ccc1N=Nc1ccc2c(S(=O)(=O)[O-])cc(S(=O)(=O)[O-])c(N)c2c1O.[Na+].[Na+].[Na+].[Na+]` [Evans Blue], the “inhibition of EV71 replication (statement in words)” value (from here on “inhibition … (statement in words)”) in experiment [3] was “can also inhibit EV71 replication”.

For `O=C(N[C@H](Cc1cscn1)C(=O)N[C@@H](CC1CCCCC1)[C@@H](O)[C@@H](O)C1CC1)c1nc2ccccc2[nH]1` [Ro 0437626], the “EV71 Log10 reduction” value in experiment [1] is “NO”. Also, the “P2X receptors 1” value in experiment [4] (Table 9, antagonists) was “✓ (✓ activating concentration >300 nM)”.

In the case of `O=C1CN=C(c2cccc(Br)c2)c2oc3ccccc3c2N1` [5-BDBD], in experiment [1], the “EV71 Log10 reduction” value is “NO”.

As for `O=C(O)c1cc(C(=O)O)c(C(=O)N(Cc2cccc(Oc3ccccc3)c2)[C@H]2CCCc3ccccc32)cc1C(=O)O` [A-317491], the “EV71 Log10 reduction” value in experiment [1] is given as “NO”.

Regarding `Cc1nc(N=Nc2ccc(C(=O)O)cc2)c(COP(=O)(O)O)c(C=O)c1O` [MRS 2159], the “EV71 Log10 reduction” value in experiment [1] is “NO”. Further, the “P2X receptors 1” value in experiment [4] (Table 9, antagonists) is “✓ ✓ (✓ ✓ activating concentration 10 nM-300 nM)”.

In the case of LVVYPWT [Spinorphin], in experiment [1], the “EV71 Log10 reduction” value was “NO”. Moreover, the “P2X receptors 3” value in experiment [5] (Table 9, antagonists) is “✓ ✓ ✓ (✓ ✓ ✓ activating concentration <10 nM)”.

Regarding `Cc1nc(N=Nc2cc(S(=O)(=O)[O-])c3cc([N+](=O)[O-])cc(S(=O)(=O)[O-])c3c2)c(COP(=O)([O-])[O-])c(C=O)c1O.[Na+].[Na+].[Na+].[Na+]` [PPNDS, Pyridoxal-5′-phosphate-6-(2′-naphthylazo-6′-nitro-4′,8′-disulfonate) tetrasodium salt], in experiment [3], the “inhibition … (statement in words)” value is “can also inhibit EV71 replication” and the “Inhibition of EV71 replication” value was “++ (++: inhibitory concentration = 10~300 nM)”. Besides, in experiment [4] (Table 8, antagonists), the “P2X receptors 1” value was “++ (++: inhibitory concentration = 10~300 nM)”.

Turning to `Nc1ncnc2c1ncn2[C@@H](C=O)O[C@@H](C=O)COP(=O)(O)OP(=O)(O)OP(=O)(O)O` [oATP], the “EV71 Log10 reduction” value in experiment [1] is on record as “NO”. Moreover, the “P2X receptors 7” value in experiment [2] (Table 9, antagonists) is reported as “✓ ✓ (✓ ✓ activating concentration 10 nM-300 nM)”.

In the case of `Clc1cccc(-n2nnnc2NCc2ccccc2Oc2ccccn2)c1Cl` [A 839977], the “EV71 Log10 reduction” value in experiment [1] was “NO”. The “P2X receptors 7” value in experiment [2] (Table 9, antagonists) is “✓ ✓ (✓ ✓ activating concentration 10 nM-300 nM)”.

For the compound `O=C(Nc1cc(C(=O)Nc2ccc(S(=O)(=O)[O-])cc2)cc(C(=O)Nc2ccc(S(=O)(=O)[O-])cc2)c1)Nc1cc(C(=O)Nc2ccc(S(=O)(=O)[O-])cc2)cc(C(=O)Nc2ccc(S(=O)(=O)[O-])cc2)c1.[Na+].[Na+].[Na+].[Na+]` [NF 110], the “EV71 Log10 reduction” value in experiment [1] was “NO”. Further, the “P2X receptors 1” value in experiment [4] (Table 9, antagonists) is listed as “✓ ✓ (✓ ✓ activating concentration 10 nM-300 nM)”. Also, in experiment [6] (Table 9, antagonists), the “P2X receptors 2” value is given as “✓ (✓ activating concentration >300 nM)”. For the same compound, in experiment [5] (Table 9, antagonists), the “P2X receptors 3” value was “✓ ✓ (✓ ✓ activating concentration 10 nM-300 nM)”.

Regarding `O=C(Nc1cccc(C(=O)Nc2ccc(S(=O)(=O)O)c3cc(S(=O)(=O)O)cc(S(=O)(=O)O)c23)c1)Nc1cccc(C(=O)Nc2ccc(S(=O)(=O)O)c3cc(S(=O)(=O)O)cc(S(=O)(=O)O)c23)c1` [NF023, 8,8′-[carbonylbis(imino-3,1-phenylenecarbonylimino)]bis-1,3,5-naphthalene-trisulphonic acid, hexasodium salt], in experiment [3], the “inhibition … (statement in words)” value is “can also inhibit EV71 replication” and the “Inhibition of EV71 replication” value is listed as “+ (+: inhibitory concentration >300 nM)”. For the same compound, the “P2X receptors 1” value in experiment [4] is “++ (key: −: no activity; +: inhibitory concentration >300 nM; ++: inhibitory concentration = 10~300 nM; +++: inhibitory concentration <10 nM)”. Besides, the “P2X receptors 2” value in experiment [6] (Table 8, antagonists) is “+ (+: inhibitory concentration >300 nM)”. For the same compound, the “P2X receptors 3” value in experiment [5] (Table 8, antagonists) is “+ (+: inhibitory concentration >300 nM)”.

For the compound `Clc1cccc(-c2nnnn2Cc2cccnc2)c1Cl` [A 438079], the “EV71 Log10 reduction” value in experiment [1] was “NO”. Further, in experiment [2] (Table 9, antagonists), the “P2X receptors 7” value is listed as “✓ ✓ (✓ ✓ activating concentration 10 nM-300 nM)”.

For `O=C(Nc1cccc(C(=O)Nc2cc(C(=O)Nc3ccc(S(=O)(=O)O)c4cc(S(=O)(=O)O)cc(S(=O)(=O)O)c34)ccc2F)c1)Nc1cccc(C(=O)Nc2cc(C(=O)Nc3ccc(S(=O)(=O)O)c4cc(S(=O)(=O)O)cc(S(=O)(=O)O)c34)ccc2F)c1` [NF157, 8,8′-[Carbonylbis[imino-3,1-phenylenecarbonylimino(4-fluoro-3,1-phenylene)carbonylimino]]], the “inhibition … (statement in words)” value in experiment [3] is reported as “can also inhibit EV71 replication”.

`Nc1ncnc2c1ncn2[C@@H]1O[C@H](COP(=O)(O)O)C(O)C1OP(=O)(O)O` (stereo partly drawn) [2′,5′-ADP]: the “EV71 Log10 reduction” value in experiment [1] is given as “NO”.

As for `CN([C@@H](Cc1ccc(OS(=O)(=O)c2cccc3cnccc23)cc1)C(=O)N1CCN(c2ccccc2)CC1)S(=O)(=O)c1cccc2cnccc12` [KN-62], the “EV71 Log10 reduction” value in experiment [1] was “NO”. The “P2X receptors 7” value in experiment [2] (Table 9, antagonists) is “✓ ✓ (✓ ✓ activating concentration 10 nM-300 nM)”.

With `COc1ccc(CC(=O)NC(N=C(NC#N)Nc2cccc3ncccc23)C(C)(C)C)cc1OC` (stereo not drawn) [A 740003], in experiment [1], the “EV71 Log10 reduction” value is listed as “NO”. The “P2X receptors 7” value in experiment [2] (Table 9, antagonists) was “✓ ✓ (✓ ✓ activating concentration 10 nM-300 nM)”.

`COc1cc(C(C)C)c(Oc2cnc(N)nc2N)cc1I` [AF353]: in experiment [1], the “EV71 Log10 reduction” value is on record as “NO”.

Take `O=C(CC12CC3CC(CC(C3)C1)C2)Nc1cccc2nc(NCCNCCO)ccc12` [AZ 10606120]: the “EV71 Log10 reduction” value in experiment [1] is on record as “NO”.

Take `Cc1ccc(CN2CCNCC2)cc1NC(=O)CNc1ccc(F)c(F)c1` [GW 791343]: the “EV71 Log10 reduction” value in experiment [1] is reported as “NO”. Also, the “P2X receptors 7” value in experiment [2] (Table 9, modulator, no key printed for this class) is listed as “✓ ✓”.
